Measurements: patent US5612329A (priority 1995, dated 1997)

How the values were obtained:
[1] = tested on: HL-60 (TB) cells; assay: cells; format: cell-based; settings: Homo sapiens, leukemia, 48 hr, read-out: log10 G150 (converted)
[2] = tested on: 786-0 cells; assay: In vitro cytotoxicity / cell growth inhibition, renal cancer; format: cell-based; settings: Homo sapiens; 786-0, renal cancer, 48 hr; read-out: log10 G150 (converted)
Protocol: (§1) The anti-proliferative activities of the aziridinylpolyamines obtained in Synthesis Examples 1-4 were assessed by determining log10 G150 values against human cancer cell lines using the screening strategy described by Boyd et al, Drug Devel. Res. 34:91-109 (1995).
(§2) More specifically, the compounds were tested at a minimum of five concentrations at 10-fold dilutions using a 48 hr continuous exposure protocol. Each cell line shown in Table 1 below was inoculated onto microtiter plates. After a pre-incubation period of 24-48 hr at 37° C., the test compounds were added, and the culture was incubated for an additional 48 hr at 37° C. Cell viability or cell growth end-point determinations were performed by fixation of the cells, followed by staining with sulforhodamine B (Monks et al, J. Natl. Cancer Inst., 83:757-766 (1991)).

[3] = tested on: A498 cells; assay: as above; format: cell-based; settings: Homo sapiens, 48 hr, read-out: log10 G150 (converted)
Protocol: as §1, §2

[4] = tested on: ACHN cells; assay: as above; format: cell-based; settings: Homo sapiens, 48 hr, read-out: log10 G150 (converted)
Protocol: as §1, §2

[5] = tested on: CAKI-1 cells; assay: as above; format: cell-based; settings: Homo sapiens; CAKI-1, renal cancer, 48 hr; read-out: log10 G150 (converted)
Protocol: as §1, §2

[6] = tested on: RXF-393 cells; assay: as above; format: cell-based; settings: Homo sapiens; RXF-393, renal cancer, 48 hr; read-out: log10 G150 (converted)
Protocol: as §1, §2

[7] = tested on: SN12C cells; assay: as above; format: cell-based; settings: Homo sapiens, 48 hr, read-out: log10 G150 (converted)
Protocol: as §1, §2

[8] = tested on: TK-10 cells; assay: as above; format: cell-based; settings: Homo sapiens; TK-10, renal cancer, 48 hr; read-out: log10 G150 (converted)
Protocol: as §1, §2

[9] = tested on: UO-31 cells; assay: as above; format: cell-based; settings: Homo sapiens; UO-31, renal cancer, 48 hr; read-out: log10 G150 (converted)
Protocol: as §1, §2

[10] = tested on: L1210 murine leukemia; assay: In vivo testing in mice bearing L1210 leukemia; set-up: species or system female CD2 F1 mice; settings: for LD20: footnote e
Description: Virus-free, adult female CD2 F1 mice were obtained from the Animal Genetics and Production Branch of the National Cancer Institute. To minimize exogenous infection, mice were housed in microisolator caging and handled in accordance with the NIH Guide for the care and use of laboratory animals (NIH No. 85-23, 1985). The mice were randomized to groups of 5 mice per group, except titration groups which consisted of 10 mice per group, and the untreated control group which consisted of 20 mice.
On day 0, the mice were inoculated intraperitoneally with 1.0×10^5 L1210 mouse leukemia cells/mouse for the treatment and control groups. The titration groups received 1.0×10^4 to 1.0×10^6 L1210 cells/mouse.
Dosing solutions were freshly prepared just prior to treatment by dissolving 1,12-diaziridinyl-4,9-diazadodecane in 25 mM sodium phosphate buffer (pH 7.4), giving concentrations of 0.18-0.6 mg/ml.
Beginning on day 1, dosing solutions were administered intravenously by tail vein at 0.01 ml/g of body weight. The doses of 1,12-diaziridinyl-4,9-diazadodecane were 6.0, 4.0, 2.7, and 1.8 mg/kg. The dosing schedule was: a single dose on day 1; 3 doses every four days beginning on day 1; 2 doses every seven days beginning on day 1; or 2 doses on days 1 and 2.
Percent increase in lifespan was calculated using the formula, (T-C/C)·100, where T is the median day of death for the various treatment groups, and C is the median day of death for the control group.
The net log cell kill is an estimate of the number of cells that are killed by the drug at each specific dose and schedule, and was calculated by the formula, ((T-C)-Duration of Treatment)·0.3/Tumor Doubling Time.

With C(CCNCCCN1CC1)CNCCCN1CC1 [Synthesis Example 1, 1,12-Diaziridinyl-4,9-diazadodecane] the GI50 [1] was 35.5 nM, the GI50 [2] was 11.2 nM and the GI50 [3] was 1820 nM. The GI50 [4] was 141 nM, the GI50 [5] was 18.6 nM and the GI50 [6] was 138 nM. The GI50 [7] was 135 nM, the GI50 [8] was 3240 nM and the GI50 [9] was 575 nM. The “Net log cell kill (NLCK)” value ([10]; 1.8 mg/kg i.v. on day 1) was 4, the “Percent increase in life span (% ILS)” value ([10]; 1.8 mg/kg i.v. on day 1) was 57% and the “Survival (median day of death)” value ([10]; 1.8 mg/kg i.v. on day 1) was 11 days. For the same molecule, the “Net log cell kill (NLCK)” value ([10]; 1.8 mg/kg i.v. on days 1, 2) was 6, the “Percent increase in life span (% ILS)” value ([10]; 1.8 mg/kg i.v. on days 1, 2) was 100% and the “Survival (median day of death)” value ([10]; 1.8 mg/kg i.v. on days 1, 2) was 14 days. The “Net log cell kill (NLCK)” value ([10]; 1.8 mg/kg i.v. on days 1, 5, 9) was 2, the “Percent increase in life span (% ILS)” value ([10]; 1.8 mg/kg i.v. on days 1, 5, 9) was 143% and the “Survival (median day of death)” value ([10]; 1.8 mg/kg i.v. on days 1, 5, 9) was 17 days. The “Net log cell kill (NLCK)” value ([10]; 1.8 mg/kg i.v. on days 1, 8) was -1, the “Percent increase in life span (% ILS)” value ([10]; 1.8 mg/kg i.v. on days 1, 8) was 86% and the “Survival (median day of death)” value ([10]; 1.8 mg/kg i.v. on days 1, 8) was 13 days. The “Net log cell kill (NLCK)” value ([10]; 2.7 mg/kg i.v. on day 1) was 3, the “Percent increase in life span (% ILS)” value ([10]; 2.7 mg/kg i.v. on day 1) was 42% and the “Survival (median day of death)” value ([10]; 2.7 mg/kg i.v. on day 1) was 10 days. The “Net log cell kill (NLCK)” value ([10]; 2.7 mg/kg i.v. on days 1, 2) was 6, the “Percent increase in life span (% ILS)” value ([10]; 2.7 mg/kg i.v. on days 1, 2) was 100% and the “Survival (median day of death)” value ([10]; 2.7 mg/kg i.v. on days 1, 2) was 14 days. The “Net log cell kill (NLCK)” value ([10]; 2.7 mg/kg i.v. on days 1, 5, 9) was 4, the “Percent increase in life span (% ILS)” value ([10]; 2.7 mg/kg i.v. on days 1, 5, 9) was 171% and the “Survival (median day of death)” value ([10]; 2.7 mg/kg i.v. on days 1, 5, 9) was 19 days. For the same molecule, the “Net log cell kill (NLCK)” value ([10]; 2.7 mg/kg i.v. on days 1, 8) was 2, the “Percent increase in life span (% ILS)” value ([10]; 2.7 mg/kg i.v. on days 1, 8) was 129% and the “Survival (median day of death)” value ([10]; 2.7 mg/kg i.v. on days 1, 8) was 16 days. For the same molecule, the “Net log cell kill (NLCK)” value ([10]; 4.0 mg/kg i.v. on day 1) was 4, the “Percent increase in life span (% ILS)” value ([10]; 4.0 mg/kg i.v. on day 1) was 57% and the “Survival (median day of death)” value ([10]; 4.0 mg/kg i.v. on day 1) was 11 days. The “Net log cell kill (NLCK)” value ([10]; 4.0 mg/kg i.v. on days 1, 2) was -3, the “Percent increase in life span (% ILS)” value ([10]; 4.0 mg/kg i.v. on days 1, 2) was -29% and the “Survival (median day of death)” value ([10]; 4.0 mg/kg i.v. on days 1, 2) was 5 days. The “Net log cell kill (NLCK)” value ([10]; 4.0 mg/kg i.v. on days 1, 5, 9) was -7, the “Percent increase in life span (% ILS)” value ([10]; 4.0 mg/kg i.v. on days 1, 5, 9) was 14% and the “Survival (median day of death)” value ([10]; 4.0 mg/kg i.v. on days 1, 5, 9) was 8 days. For the same molecule, the “Net log cell kill (NLCK)” value ([10]; 4.0 mg/kg i.v. on days 1, 8) was 4, the “Percent increase in life span (% ILS)” value ([10]; 4.0 mg/kg i.v. on days 1, 8) was 157% and the “Survival (median day of death)” value ([10]; 4.0 mg/kg i.v. on days 1, 8) was 18 days. For the same molecule, the “Net log cell kill (NLCK)” value ([10]; 6.0 mg/kg i.v. on day 1) was -1, the “Percent increase in life span (% ILS)” value ([10]; 6.0 mg/kg i.v. on day 1) was -14% and the “Survival (median day of death)” value ([10]; 6.0 mg/kg i.v. on day 1) was 6 days. For the same molecule, the LD20 ([10]; i.v. on day 1) was 4.0 mg/kg, the LD20 ([10]; i.v. on days 1, 2) was 2.7 mg/kg and the LD100 ([10]; i.v. on days 1, 2, footnote f) was 4.0 mg/kg. For the same molecule, the LD20 ([10]; i.v. on days 1, 5, 9) was 4.0 mg/kg, the LD20 ([10]; i.v. on days 1, 8) was 4.0 mg/kg and the “increase in the life span” value ([10]; i.v., doses of less than 2.7 mg/kg, days 1, 5, and 9) was “significant increase in the life span”.
